Results reported in PubChem BioAssay (NCI).
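1) Cells in 96-well plates. 2) Compound, 48 h, 5 concentrations. 3) Linear interpolation between surrounding doses. 4) Unreached endpoint = highest concentration. At the GI50, growth is halved. The concentration for full growth arrest is given as TGI.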

Key:
Assay in all cases: DTP human tumour cell line panel, 48 h
SNB-19 CNS = tested on: SNB-19 CNS
HCT-116 colon = tested on: HCT-116 colon
K-562 leukemia = tested on: K-562 leukemia
HOP-92 NSCLC = tested on: HOP-92 NSCLC
A498 renal = tested on: A498 renal
U251 CNS = tested on: U251 CNS
A549 NSCLC = tested on: A549 NSCLC
DU-145 prostate = tested on: DU-145 prostate
MOLT-4 leukemia = tested on: MOLT-4 leukemia
HS 578T breast = tested on: HS 578T breast
MDA-MB-435 = tested on: MDA-MB-435
HT29 colon = tested on: HT29 colon
CCRF-CEM leukemia = tested on: CCRF-CEM leukemia
KM12 colon = tested on: KM12 colon
SNB-75 CNS = tested on: SNB-75 CNS

Compound	TGI (SNB-19 CNS) [µM]	TGI (HCT-116 colon) [µM]	TGI (K-562 leukemia) [µM]	TGI (HOP-92 NSCLC) [µM]	TGI (A498 renal) [µM]	TGI (U251 CNS) [µM]	TGI (A549 NSCLC) [µM]	TGI (DU-145 prostate) [µM]	TGI (MOLT-4 leukemia) [µM]	TGI (HS 578T breast) [µM]	TGI (MDA-MB-435) [µM]	TGI (HT29 colon) [µM]	TGI (CCRF-CEM leukemia) [µM]	TGI (KM12 colon) [µM]	TGI (SNB-75 CNS) [µM]	GI50 (HOP-92 NSCLC) [µM]	GI50 (KM12 colon) [µM]	GI50 (SNB-75 CNS) [µM]	GI50 (MOLT-4 leukemia) [µM]	GI50 (CCRF-CEM leukemia) [µM]
CC1(C)CCc2c(ccc(C(=O)/C=C/c3ccc(O)cc3)c2O)O1	25.8	20	75	24.4	29.8	20.1	25.8	18.6	69.1	27.2	19.9	23.9	13.2	–	–	–	–	–	–	–
COC1OC2COC(c3ccccc3)OC2C(O)C1OC(=S)c1ccccc1 (centres undefined)	> 100	–	> 100	> 100	> 100	12.9	> 100	> 100	> 100	> 100	4.37	47.9	48.5	–	–	–	–	–	–	–
C/C1=C\[C@H](C)C[C@H](C)OC(=O)[C@H](C)NC(=O)[C@@H](Cc2ccc(O)c(Br)c2)N(C)C(=O)[C@H](C)NC(=O)[C@@H](C)C1	9.32	> 12.2	> 25	0.177	0.051	> 7.76	> 25	> 25	> 19.5	3.76	> 25	> 3.13	> 10.3	> 25	0.0904	–	–	–	–	–
O=C1N(Cc2ccccc2)C2CSCC2N1Cc1ccccc1 (centres undefined)	> 100	> 100	> 100	77.7	–	> 100	> 100	> 100	97	66.5	51.5	38.1	> 100	> 100	> 100	–	–	–	–	–
C[C@@H]1CC[C@H]2[C@H]1[C@H]1[C@@H](CC[C@]2(C)N=C=S)C1(C)C	–	31.7	35.7	84.7	–	30.5	–	49.6	32.5	> 100	96.6	52.7	30.9	40	> 100	–	–	–	–	–
COc1ccc(N2C(=O)C3c4[nH]c5cc(C)ccc5c4C4CCC(C(C)(C)C)CC4C3C2=O)cc1 (centres undefined)	> 10	> 10	> 10	–	> 10	> 10	> 10	> 10	> 10	> 10	> 10	> 10	> 10	> 10	6.07	–	–	–	–	–
C=CC1(C)CC(=O)C2(O)C(C)(O1)C(OC(C)=O)C(O)C1C(C)(C)CCC(O)C12C (centres undefined)	> 150	> 150	> 150	> 150	> 150	> 94.6	> 150	–	> 150	–	–	> 150	> 150	> 150	> 150	20.3	2.37	4.13	> 91.2	> 65.8
OC(C#CCN1CCCC1)(c1ccccc1)c1ccccc1Cl (centres undefined)	–	85.2	> 100	–	66.8	35.2	> 100	> 100	91.2	73.6	51.5	30.1	> 100	> 100	> 100	–	–	–	–	–
COc1ccc2oc(=N)c(C(=O)Nc3ccccc3)cc2c1	> 100	> 100	4.19	–	39.8	55.1	> 100	> 100	> 100	39.6	32.3	> 100	37.1	> 100	28	–	–	–	–	–
